For the assay, the target named is T1, human nicotinic alpha7 WT receptor (Homo sapiens, UniProt P36544).
T1 construct: expressed in transfected cells; host or cells: GH4C1 (rat pituitary-derived cell line), RPA clone #34.7
Description: Nicotinic alpha 7 Modulation Assay (FLIPR). As to conditions: GH4C1 cells stably expressing human nicotinic alpha7 WT receptor, ACh 30 μM, positive control 1 μM PNU-120596. The format is cell-based. The procedure:
Nicotinic alpha 7 Modulation Assay
Cell Culture Growth Media: F10 medium (Invitrogen), 2.5% Fetal Bovine Serum (FBS, Summit Biotechnology); 15% heat inactivated donor Horse Serum (Invitrogen), 250 μg/ml Hygromycin B (Invitrogen); and 100 nM Methyllicaconite (MLA, Sigma) are added to each new culture by 50-fold dilution of stock solution prepared in H2O at 5 μM.
GH4C1 cells (rat pituitary-derived cell line) stably expressing human nicotinic alpha7 WT receptor (RPA clone #34.7) are cultivated in cell culture growth media (described above) at 37 C in a humidified atmosphere containing 4% CO2. […]
The alpha 7 nAChR assay is a cell-based functional readout designed to determine the effect of test compounds to either directly activate nicotinic receptor channels and/or to modulate activation by the native agonist acetylcholine (ACh, Sigma). […]
Assay of test compound effect on activation of the alpha7 nicotinic receptor channel is done by measurement of cytosolic [Ca^2+] elevation as reported by increased FLUO-3 fluorescence using a two addition experimental design and FLIPR™ (Molecular Devices). Following a 30 second baseline recording, test compounds are added online (dilution scheme below) and cell response is recorded for an additional 5 minutes. After a second addition of ACh (30 μM, FAC), plates are read for an additional 4 minutes. […]

Positive allosteric modulation data for 1 molecule are collected here from patent US7981914B2, “Tetrazole-substituted aryl amide derivatives and uses thereof” (Roche Palo Alto LLC, priority 2007, dated 2011).

T1 sequence (P36544 23-502): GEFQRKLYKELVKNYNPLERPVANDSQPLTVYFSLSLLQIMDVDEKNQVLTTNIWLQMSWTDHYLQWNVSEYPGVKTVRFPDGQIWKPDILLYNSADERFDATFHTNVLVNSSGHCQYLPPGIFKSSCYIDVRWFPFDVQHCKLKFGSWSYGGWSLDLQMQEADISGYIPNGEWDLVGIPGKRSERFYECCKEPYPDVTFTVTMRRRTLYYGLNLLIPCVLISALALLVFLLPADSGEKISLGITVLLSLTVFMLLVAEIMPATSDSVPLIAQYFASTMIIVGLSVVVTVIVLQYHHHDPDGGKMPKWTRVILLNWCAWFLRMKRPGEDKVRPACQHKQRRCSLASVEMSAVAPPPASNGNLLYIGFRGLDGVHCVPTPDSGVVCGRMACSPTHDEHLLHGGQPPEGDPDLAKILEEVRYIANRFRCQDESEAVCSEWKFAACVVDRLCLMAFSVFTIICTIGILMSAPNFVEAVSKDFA

The molecule `COc1ccccc1-c1cc(C(=O)NCCc2ccc(S(N)(=O)=O)cc2)cc(-n2cnnn2)c1` [Compound 4, 2′-Methoxy-5-tetrazol-1-yl-biphenyl-3-carboxylic acid [2-(4-sulfamoyl-phenyl)-ethyl]-amide] came in with a positive allosteric modulation of 467.65.
